The values below are quoted from earlier work in paper PMC7855644 (Journal of pharmaceutical sciences, 2020).

Where no end group is shown, it is not given here.

This data set concerns blood brain barrier.

As to TFFYGGSRGRRNNFRTEEY-NH2 [Peptide A7], the In vivo transcytosis entry is given as “lack of in vivo transcytosis”.
